Results published in PubChem BioAssay (NCI).
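Results reflect a 48-hour exposure of cells in 96-well plates to compound at five concentrations. GI50: concentration for 50% inhibition of growth. TGI: total growth inhibition.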

Key:
Assay in all cases: NCI tumour cell line growth inhibition, 48 h; in the data active means GI50 below about 0.43 µM; inactive means the rest
[1] = test system: SR leukemia
[2] = test system: HL-60(TB) leukemia
[3] = test system: PC-3 prostate
[4] = test system: NCI-H522 lung
[5] = test system: UO-31 renal
[6] = test system: A498 renal
[7] = test system: OVCAR-8 ovarian
[8] = test system: RPMI-8226 leukemia
[9] = test system: TK-10 renal
[10] = test system: SK-MEL-5 melanoma
[11] = test system: COLO 205 colon
[12] = test system: MOLT-4 leukemia
[13] = test system: U251 CNS
[14] = test system: BT-549 breast
[15] = test system: T-47D breast
[16] = test system: NCI/ADR-RES ovarian
[17] = test system: M14 melanoma
[18] = test system: RXF 393 renal
[19] = test system: SNB-75 CNS
[20] = test system: SN12C renal
[21] = test system: HT29 colon
[22] = test system: SK-OV-3 ovarian
[23] = test system: UACC-62 melanoma
[24] = test system: SK-MEL-2 melanoma
[25] = test system: SK-MEL-28 melanoma
[26] = test system: CAKI-1 renal
[27] = test system: SNB-19 CNS
[28] = test system: EKVX NSCLC
[29] = test system: CCRF-CEM leukemia
[30] = test system: IGROV1 ovarian
[31] = test system: SF-295 CNS
[32] = test system: SW-620 colon
[33] = test system: HOP-92 NSCLC
[34] = test system: HOP-62 NSCLC
[35] = test system: A549 NSCLC
[36] = test system: DU-145 prostate
[37] = test system: OVCAR-4 ovarian
[38] = test system: 786-0 renal
[39] = test system: ACHN renal
[40] = test system: NCI-H23 lung
[41] = test system: KM12 colon
[42] = test system: UACC-257 melanoma
[43] = test system: MDA-MB-231 breast
[44] = test system: HCC-2998 colon
[45] = test system: MALME-3M melanoma
[46] = test system: HCT-116 colon
[47] = test system: SF-268 CNS
[48] = test system: OVCAR-5 ovarian
[49] = test system: HS 578T breast
[50] = test system: MDA-MB-435
[51] = test system: K-562 leukemia
[52] = test system: HCT-15 colon
[53] = test system: NCI-H460 lung
[54] = test system: MCF7 breast
[55] = test system: OVCAR-3 ovarian
[56] = test system: LOX IMVI melanoma
[57] = test system: SF-539 CNS

Clc1ccc(-c2nc3c(-c4ccccc4)nc(-c4ccccc4)cn3c2-c2ccc(Cl)cc2)cc1
inactive: GI50 [1] > 100 µM | GI50 [2] > 100 µM | GI50 [3] > 100 µM | GI50 [4] > 100 µM | GI50 [5] > 100 µM | GI50 [6] > 100 µM | GI50 [7] > 100 µM | GI50 [8] > 100 µM | GI50 [9] > 100 µM | GI50 [10] > 100 µM | GI50 [11] > 100 µM | GI50 [12] > 100 µM | GI50 [13] > 100 µM | GI50 [14] > 100 µM | GI50 [15] > 100 µM | GI50 [16] > 100 µM | GI50 [17] > 100 µM | GI50 [18] > 100 µM | GI50 [19] 91.4 µM | GI50 [20] > 100 µM | GI50 [21] > 100 µM | GI50 [22] > 100 µM | GI50 [23] > 100 µM | GI50 [24] > 100 µM | GI50 [25] > 100 µM | GI50 [26] > 100 µM | GI50 [27] > 100 µM | GI50 [28] > 100 µM | GI50 [29] > 100 µM | GI50 [30] > 100 µM | GI50 [31] > 100 µM | GI50 [32] > 100 µM | GI50 [33] > 100 µM | GI50 [34] > 100 µM | GI50 [35] > 100 µM | GI50 [36] > 100 µM | GI50 [37] > 100 µM | GI50 [38] > 100 µM | GI50 [39] > 100 µM | GI50 [40] > 100 µM | GI50 [41] > 100 µM | GI50 [42] > 100 µM | GI50 [43] > 100 µM | GI50 [44] > 100 µM | GI50 [45] > 100 µM | GI50 [46] > 100 µM | GI50 [47] > 100 µM | GI50 [48] > 100 µM | GI50 [49] > 100 µM | GI50 [50] > 100 µM | GI50 [51] > 100 µM | GI50 [52] > 100 µM | GI50 [53] > 100 µM | GI50 [54] > 100 µM | GI50 [55] > 100 µM | GI50 [56] > 100 µM | GI50 [57] > 100 µM
> 100 µM: TGI [1] | TGI [2] | TGI [3] | TGI [4] | TGI [5] | TGI [6] | TGI [7] | TGI [8] | TGI [9] | TGI [10] | TGI [11] | TGI [12] | TGI [13] | TGI [14] | TGI [15] | TGI [16] | TGI [17] | TGI [18] | TGI [19] | TGI [20] | TGI [21] | TGI [22] | TGI [23] | TGI [24] | TGI [25] | TGI [26] | TGI [27] | TGI [28] | TGI [29] | TGI [30] | TGI [31] | TGI [32] | TGI [33] | TGI [34] | TGI [35] | TGI [36] | TGI [37] | TGI [38] | TGI [39] | TGI [40] | TGI [41] | TGI [42] | TGI [43] | TGI [44] | TGI [45] | TGI [46] | TGI [47] | TGI [48] | TGI [49] | TGI [50] | TGI [51] | TGI [52] | TGI [53] | TGI [54] | TGI [55] | TGI [56] | TGI [57]
